Assay results reported in US12350247B2, “Use of APE1/Ref-1 inhibitors for treatment of retinal diseases” (Indiana University Research and Technology Corporation, priority 2017, dated 2025).
Read-outs that look alike come from different tables or passages of the source.

Assays:
Pa03C [1] = test: Monolayer cytotoxicity under hypoxia (alamarBlue); assay type: cell-based; details: Homo sapiens, N = 3, read-out: LC50 (the source's name)
Text: (§1) To determine target selectivity, analogs of APX3330, APX2009 and APX2014, and an analog of SLC-0111, FC12-531A, were used.

Panc10.05 = test: Monolayer cytotoxicity under hypoxia (alamarBlue); assay type: cell-based; details: Homo sapiens, Panc1005, Panc10.05, N = 3, read-out: LC50 (the source's name)
Text: as §1

[2] = tested on: HCT-116 colon cancer cells; test: Killing of colon cancer cells by APX3330 combined with CPI-613 (Example 4); assay type: cell-based, human; details: 0.2, 0.8, 1.6, 3.1, 6.3 μM APX3330 combined with 100 and 75 μM CPI-613
Method: Standard 3D co-culture assays as described in Example 2 were used to evaluate the cytotoxicity of the combination on tumor cells as well as cancer-associated fibroblasts.
As shown in FIGS. 15A-15C, there was greater than 50% killing of HCT-116 colon cancer cells using 0.2, 0.8, 1.6, 3.1, 6.3 μM APX3330 when combined with 100 and 75 μM CPI-613.

[3] = tested on: mouse C26 colon cancer cells; test: Colon cancer orthotopic tumors, oxaliplatin with APX3330; assay type: in vivo, mice
Method: Immune competent mice were injected with mouse C26 colon cancer cells in the caecum (FIG. 29A). Animals were treated with either oxaliplatin or oxaliplatin with APX3330 and tumor size determined compared to vehicle controls (FIG. 29B).

CAFs (CAF19 cells) = test: 3D spheroid co-culture, CAF signal (green channel); details: for CC50: read-out: LC50, 3D Cultures, CAFs
Pa03C [4] = test: 3D tumor spheroid culture growth (fluorescence intensity)
[5] = tested on: Pa03C and Panc10.05 tumor cells; test: 3D spheroid / co-culture model of pancreatic cancer (both patient lines)
Method: Pa03C cells were plated into 3D cultures alone or with CAF19 cells.
Pa03C and Panc10.05 tumor cells were grown in 3D cultures in the presence of CAFs. Spheroids were treated with either single agents, vehicle (DMSO) or combination of targeted agents on days 4 and 8 (black arrows), and the intensity of tumor (red) and CAF (green) were quantified as described in Example 7 every 3-4 days in culture.

**Q.** Which CC50 (Pa03C [1]) does the source give for `CCCCCCCCC/C(=C\C1=C(C)C(=O)C(OC)=C(OC)C1=O)C(=O)O` [APX3330] here?
**A.** 50.2 µM

**Q.** And the CC50 (Panc10.05)?
**A.** 40.3 µM

**Q.** And the “killing of HCT-116 colon cancer cells” value [2]?
**A.** greater than 50%

**Q.** And the “oxaliplatin induced loss of myenteric neurons in the colon” value ([3]; CRC mice)?
**A.** alleviated oxaliplatin induced loss of myenteric neurons

**Q.** And the “tumor cell killing vs oxaliplatin alone” value ([3]; oxaliplatin with APX3330)?
**A.** dramatic and significantly increased tumor cell killing

**Q.** What about the “area of the CAFs” value (CAFs (CAF19 cells); APX3330 alone, co-culture with Pa03C) of the same molecule?
**A.** reduction in the area of the CAFs

**Q.** And the CC50 (CAFs (CAF19 cells); co-culture with Pa03C, D12 curves)?
**A.** 57.3 µM

**Q.** What about the CC50 (CAFs (CAF19 cells); co-culture with Panc10.05, D12 curves) of the same molecule?
**A.** 59.4 µM

**Q.** And the “effect of gemcitabine with APX3330 on tumor” value (Pa03C [4]; Pa03C in co-culture with CAFs, APX3330 50 μM)?
**A.** dose-dependent combination effect

**Q.** And the CC50 (Pa03C [4]; read-out: LC50, 3D Cultures, Tumor Alone, Pa03C, D12 curves)?
**A.** 37.9 µM

**Q.** What about the “tumor cell growth in combination with SLC-0111” value ([5]; 3D co-cultures with CAFs, APX3330 at 50 μM, APX2009 at 10 μM, APX2014 at 0.6 μM) of the same molecule?
**A.** significantly attenuated tumor cell growth

**Q.** What about the “tumor killing in combination with napabucasin” value ([5]; 3D spheroid model (tumor and CAF)) of the same molecule?
**A.** synergistic tumor killing effect

**Q.** What about the “single agent efficacy on 3D spheroid growth” value ([5]; treated on days 4 and 8, FIG. 17) of the same molecule?
**A.** reduced cell growth, cell proliferation
